A short description of data set [1]: Half-life (stability) in buffer solution. Conditions: for half-life at 100 µM: 10^-4 M. The data set is classed as physicochemical. The method, then:
T1/2 =9.8 h (measured at a concentration of 10^-4 M in phosphate buffer pH 7.4 at 36.8° C.).
UV (phosphate buffer, pH 7.4) λmax 294 nm (ε=8,202); T1/2 (phosphate buffer, pH 7.4, M=0.967, T=37° C.) 9.1 h.
(c of 10^-4 M in pH 7.4 phosphate buffer.
.tau.1/2 =20.8 h measured at 37° C. in buffer (pG 7.4) for a concentration of 10^-4 M.
.tau.1/2 =12.5 h measured at 37° C. in buffer pH 7.4 for a concentration of 10^-4 M.
h (measured for a concentration of 10^-4 M at 36.8° C. in buffer pH 7.4).
.tau.1/2 =26.0 h (measured for a concentration of 10^-4 M at 36.8° C. in buffer pH 7.4).
.tau.1/2 =16.6 h (measured at 36.8° C., pH 7.4 for a concentration of 10^-4 M) and (5R, 6S) 6-(1R-hydroxyethyl)7-oxo-3-[1,2,6-trimethylpyridinium-4-yl)methylthio]-1-azabicyclo[3.2.0 hept-2-ene-2-carboxylate, 0.010 g, 0.7%;
.tau.1/2 =11.6 h (measured for a concentration of 10^-4 M at 36.8° C. in buffer pH 7.4).
.tau.1/2 =13.4 h (measured for a concentration of 10^-4 M at 36.8° C. in buffer pH 7.4).
.tau.1/2 =14.4 h (measured for a concentration of 10^-4 M at 36.8° C. in buffer pH 7.4).
T 1/2: 10.2 h (biological buffer).
.tau.1/2 =10.2 h measured at 36.8° C. for a concentration of 10^-4 M in buffer pH 7.4.

A short description of data set [2]: Blood levels in mice after intramuscular administration.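 Further: compounds dissolved in 0.1 M phosphate buffer at pH 7, data from one experiment using four mice for each compound.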 Conditions: mouse, blood, im, 20 mg/kg.
Source text: Compounds were solubilized in 0.1 M phosphate buffer pH 7.
a single test; 4 mice used per compound.
Compounds were solubilized in 0.1 M phosphate buffer, pH 7.
on a single test; 4 mice per compound.
Another data set deals with P. vulgaris A21559. The data set can be described thus: M.I.C., tube dilution. The note with it: Proteus vulgaris, A21559, overnight incubation at 37° C., Nutrient Broth; read-out: MIC. The data set is classed as cell-based.
The next data set has as its system S. faecalis A20688. Briefly: M.I.C., tube dilution. In kind it is cell-based. The note with it: Enterococcus faecalis, A20688, overnight incubation at 37° C., Nutrient Broth; read-out: MIC.
The subject of the next data set is P. aeruginosa A21213. The data set can be described thus: M.I.C., tube dilution. The data set is classed as cell-based. Conditions: Pseudomonas aeruginosa.
The next data set relates to S. aureus A-9537. The data set can be described thus: M.I.C., tube dilution. The data set is classed as cell-based. Conditions: Staphylococcus aureus, A9537; +50% serum; read-out: MIC.
Another data set deals with S. pneumoniae A-9585. Briefly: M.I.C., tube dilution. In kind it is cell-based. The note with it: Streptococcus pneumoniae, A9585; overnight incubation at 37° C., Nutrient Broth; read-out: MIC.
In a further data set the test system is S. pyogenes A-9604. The data set can be described thus: M.I.C., tube dilution. The data set is classed as cell-based. Conditions: Streptococcus pyogenes, A9604; overnight incubation at 37° C., Nutrient Broth; read-out: MIC.
The mark [3] stands for this setting: (phosphate) buffer pH 7.4, 36.8° C., read-out: T1/2 (half-life in solution) (converted).
The mark [4] stands for this setting: biological buffer, read-out: T 1/2 (half-life in solution) (converted).
Setting [5] is: (phosphate) buffer pH 7.4, 37° C., read-out: half-life in solution (converted).

In brackets after ≈: the same amount, converted by molar mass. Like-named read-outs stand apart in the source and are kept apart here.

Regarding `Cc1cc(CSC2=C(C(=O)[O-])N3C(=O)[C@H]([C@@H](C)O)[C@H]3C2)c[n+](C)c1` [Example 37], the half-life at 100 µM in data set [1] (setting [3]) is 13.4 h. As for `Cc1cc(CSC2=C(C(=O)[O-])N3C(=O)[C@H]([C@@H](C)O)C3[C@H]2C)c[n+](C)c1` (stereo in doubt) [Example 35, (5R,6S) 3-[(1,5-dimethylpyridinium-3-yl)methylthio]-6-(1R-hydroxyethyl)-4R-methyl-7-oxo-1-azabicyclo[3.2.0]hept-2-ene-2-carboxylate], the half-life at 100 µM in data set [1] (setting [3]) is 26 h.

As usually defined, the AUC is the area under the concentration-time curve, a measure of exposure. Low values mean less exposure, high ones more exposure. In general, Cmax refers to the highest concentration seen after dosing. Usually MIC stands for the lowest concentration found to suppress growth. In data set [2], `C[C@@H](O)[C@H]1C(=O)N2C(C(=O)[O-])=C(SCc3scc[n+]3C)C[C@H]12` [Example 11, 3-[2-(N-Methylthiazolium)methylthio]-6α-[1-(R)-hydroxyethyl]-7-oxo-1-azabicyclo(3.2.0)hept-2-ene-2-carboxylate] registered an AUC of 7400 ng·h/mL, a Cmax of 14900 ng/mL and a half-life of 0.183 h. The MIC in the data set on P. vulgaris A21559 is 0.03 µg/mL (≈ 0.0881 µM). Besides, the MIC in the data set with S. faecalis A20688 worked out at 0.5 µg/mL (≈ 1.47 µM). `Cc1cc(C)[n+](C)c(CSC2=C(C(=O)[O-])N3C(=O)[C@H]([C@@H](C)O)[C@H]3C2)c1` [(5R,6S) 6-(1R-hydroxyethyl)-7-oxo-3-[(1,4,6-trimethylpyridinium-2-yl)methylthio]-1-azabicyclo[3.2.0]hept-2-ene-2-carboxylate]: the half-life at 100 µM in data set [1] (setting [3]) is 16.6 h. For the molecule `Cc1cc(C)[n+](C)c(CSC2=C(C(=O)[O-])N3C(=O)[C@H]([C@@H](C)O)C3[C@H]2C)c1` (stereo in doubt) [Example 51A, (5R,6S) 6-(1R-Hydroxyethyl)-4R-methyl-7-oxo-3-[(1,4,6-trimethylpyridinium-2-yl)-methylthio]-1-azabicyclo[3.2.0]hept-2-ene-2-carboxylate], the half-life at 100 µM in data set [1] (phosphate buffer, 36.7° C., read-out: t 1/2 (half-life in solution) (converted)) is 22.3 h. Consider `C[C@@H](O)[C@H]1C(=O)N2C(C(=O)[O-])=C(SCc3cncc[n+]3C)[C@H](C)[C@H]12` [Example 46, (5R,6S)-6-(1R-Hydroxyethyl)-4R-methyl-3-[(1-methyl-1,4-pyrazinium-2-yl)-methylthio]-7-oxo-1-azabicyclo[3.2.0]-hept-2-ene-2-carboxylate], for which, in data set [1] (biological buffer, unit inferred, read-out: T1/2 (half-life in solution) (converted)), the half-life is 12.3 h.

`Cc1cc(CSC2=C(C(=O)[O-])N3C(=O)[C@H]([C@@H](C)O)[C@H]3C2)cc(C)[n+]1C` [(5R,6S) 6-(1R-hydroxyethyl)-7-oxo-3-[(1,2,6-trimethylpyridinium-4-yl)methylthio]-1-azabicyclo[3.2.0]hept-2-ene-2-carboxylate]: the half-life at 100 µM in data set [1] (setting [3]) is 11.6 h. Take `COCC[n+]1ccccc1CSC1=C(C(=O)[O-])N2C(=O)[C@H]([C@@H](C)O)[C@H]2C1` [Example 52, (5R,6S) 6-(1R-hydroxyethyl)-3-[{1-(2-methoxyethyl)pyridinium-2-yl}methylthio]-7-oxo-1-azabicyclo[3.2.0]hept-2-ene-2-carboxylate]: the half-life at 100 µM in data set [1] (setting [3]) was 9.9 h. With `C[C@@H](O)[C@H]1C(=O)N2C(C(=O)[O-])=C(SCc3cncc[n+]3C)C[C@H]12` [Example 45, (5R,6S)-6-(1R-Hydroxyethyl)-3-[(1-methyl-1,4-pyraziinium-2-yl)methylthio]-7-oxo-1-azabicyclo(3.2.0)-hept-2-ene-2-carboxylate], the half-life in data set [1] (setting [4]) is 10.2 h.

`Cc1cccc(CSC2=C(C(=O)[O-])N3C(=O)[C@H]([C@@H](C)O)[C@H]3C2)[n+]1C` [Example 26, (5R,6S) 3-[(1,6-dimethylpyridinium-2-yl)methylthio]-6-(1R-hydroxyethyl)-7-oxo-1-azabicyclo[3.2.0]hept-2-ene-2-carboxylate]: the half-life at 100 µM in data set [1] (setting [5]) was 12.5 h.

In the case of `Cc1cccc(CSC2=C(C(=O)[O-])N3C(=O)[C@H]([C@@H](C)O)C3[C@H]2C)[n+]1C` (stereo in doubt) [Example 25, (5R,6S) 3-[(1,6-dimethylpyridinium-2-yl)methylthio]-6-(1R-hydroxyethyl)-4R-methyl-7-oxo-1-azabicyclo[3.2.0]hept-2-ene-2-carboxylate], the half-life at 100 µM in data set [1] (setting [5]) is 20.8 h. Consider `C#CCC[n+]1ccccc1CSC1=C(C(=O)[O-])N2C(=O)[C@H]([C@@H](C)O)[C@H]2C1` [Example 53, (5R,6S) 3[(1-{but-3-yn-1-ylpyridinium-2-yl)}methylthio]-6-(1R-hydroxyethyl)-7-oxo-1-azabicyclo[3.2.0]hept-2-ene-2-carboxylate], for which, in data set [1] (setting [3]), the half-life at 100 µM is 10.2 h. On the same count and under the same terms, as for `Cc1ccc(CSC2=C(C(=O)[O-])N3C(=O)[C@H]([C@@H](C)O)C3[C@H]2C)c[n+]1C` (stereo in doubt) [Example 34, (5R,6S) 3-[(1,6-dimethylpyridinium-3-yl)methylthio]-6-(1R-hydroxyethyl)-4R-methyl-7-oxo-1-azabicyclo[3.2.0]hept-2-ene-2-carboxylate], the figure is 27.8 h. For the molecule `C[C@@H](O)[C@H]1C(=O)N2C(C(=O)[O-])=C(SCc3cs[n+](C)n3)C[C@H]12` [Example 16, (5R,6S) 6-(1R-hydroxyethyl)-3-(2-methyl-1,2,3-thiadiazolium-4-ylmethylthio)-7-oxo-1-azabicyclo[3.2.0]hept-2-ene-2-carboxylate], the half-life at 100 µM in data set [1] (setting [3]) was 9.8 h. Further, the results for the MIC against P. aeruginosa A21213 (A21213), in the data set with P. vulgaris A21559 and in the data set with S. faecalis A20688 were 0.13 µg/mL (≈ 0.381 µM), 0.03 µg/mL (≈ 0.0879 µM) and 1 µg/mL (≈ 2.93 µM), respectively.

For `Cc1c(CSC2=C(C(=O)[O-])N3C(=O)[C@H]([C@@H](C)O)[C@H]3C2)sc[n+]1C` [Example 50], the half-life at 100 µM in data set [1] (pH 7.4 phosphate buffer, temperature not given, read-out: half-life in solution (converted)) is 11 h. Consider `Cc1ccc(CSC2=C(C(=O)[O-])N3C(=O)[C@H]([C@@H](C)O)[C@H]3C2)c[n+]1C` [Example 38, (5R,6S) 3-[(1,6-dimethylpyridinium-3-yl)methylthio]-6-(1R-hydroxyethyl)-7-oxo-1-azabicyclo[3.2.0]hept-2-ene-2-carboxylate], for which, in data set [1] (setting [3]), the half-life at 100 µM was 14.4 h. For the molecule `C[C@@H](O)[C@H]1C(=O)N2C(C(=O)[O-])=C(SCc3n(C)nc[n+]3C)C[C@H]12` [Example 19, 3-[5-(1,4-dimethyl-1,2,4-triazolium)-methanethio]-6α-[1-(R)-hydroxyethyl]-7-oxo-1-azabicyclo[3.2.0]hept-2-ene-2-carboxylate], the half-life was 9.1 h in data set [1] (phosphate buffer, pH 7.4, M=0.967, T=37° C., read-out: T1/2 (half-life in solution) (converted)) and 0.278 h in data set [2]. The molecule further gave an AUC in data set [2] of 15100 ng·h/mL. The same molecule had a Cmax in data set [2] of 27000 ng/mL. For the same molecule, the MIC with S. aureus A-9537 amounted to 0.008 µg/mL (≈ 0.0236 µM); in the data set on P. vulgaris A21559, 0.016 µg/mL (≈ 0.0473 µM). Consider `C[C@@H](O)[C@H]1C(=O)N2C(C(=O)[O-])=C(SCc3cn(C)[n+](C)c3)C[C@H]12` [Example 47], for which the half-life in data set [1] (setting [4]) is 15.2 h. As for `Cc1cc(CSC2=C(C(=O)[O-])N3C(=O)[C@H]([C@@H](C)O)C3[C@H]2C)cc(C)[n+]1C` (stereo in doubt) [Example 51B, (5R,6S) 6-(1R-Hydroxyethyl)-4R-methyl-7-oxo-3-[(1,2,6-trimethylpyridinium-4-yl)-methylthio]-1-azabicyclo[3.2.0]hept-2-ene-2-carboxylate], in data set [1] (setting [3]), the half-life at 100 µM is 29.8 h. In the case of `C[C@@H](O)[C@H]1C(=O)N2C(C(=O)[O-])=C(SCc3n(Cc4ccccc4)cc[n+]3C)C[C@H]12` [Example 13, 3-(N Methyl-N'-benzylimidazole-2-yl-methanethio)-6α-[1-(R)-hydroxyethyl]-7-oxo-1-azabicyclo(3.2.0)hept-2-ene-2-carboxylate], in data set [2], the AUC came to 6400 ng·h/mL. The Cmax in data set [2] was found to be 14800 ng/mL. For the same molecule, the half-life in data set [2] worked out at 0.183 h. The MIC stood at 2 µg/mL (≈ 4.84 µM) in the data set on P. aeruginosa A21213 (A21213, overnight incubation at 37° C., Nutrient Broth, read-out: MIC); 0.0005 µg/mL (≈ 0.00121 µM) in the data set with S. pneumoniae A-9585; 0.008 µg/mL (≈ 0.0193 µM) with P. vulgaris A21559; 0.0005 µg/mL (≈ 0.00121 µM) in the data set with S. pyogenes A-9604.

On to `Cc1c(CSC2=C(C(=O)[O-])N3C(=O)[C@H]([C@@H](C)O)C3[C@H]2C)sc[n+]1C` (stereo in doubt) [Example 54, (5R,6S) 3-[(3,4-Dimethylthiazolium-5-yl)methylthio]-6-(1'R-hydroxyethyl)-4R-methyl-7-oxo-1-azabicyclo[3.2.0]hept-2-ene-2-carboxylate], for which the half-life at 100 µM in data set [1] (setting [5]) is 19 h.

Source of the values: patent US4732977A, “Carbapenem antibiotics” (priority 1986, dated 1988).
